Assay results reported in US8765819B2, “Composition comprising benzoic acid in combination with organic acid preservatives as active ingredients and the use thereof” (priority 2009, dated 2014).

System: Candida strains (clinical isolates from patients suffering from Candidal vaginitis)
Assay: Inhibition of Candida growth in broth pH 4.5 (turbidity after 72 hours)
Type: cell-based
Settings: for Candida growth, Strain 1: Strain 1, 37.5° C.; for Candida growth, Strain 2: Strain 2, 37.5° C.; for Candida growth, Strain 3: Strain 3, 37.5° C.; for Candida growth, Strain 4: Strain 4, 37.5° C.; for Candida growth, Strain 5: Strain 5, 37.5° C.; for Candida growth, Strain 6: Strain 6, 37.5° C.; for Candida growth, Strain 7: Strain 7, 37.5° C.; for Candida growth, Strain 8: Strain 8, 37.5° C.; for Candida growth, Strain 9: Strain 9, 37.5° C.; for Candida growth, Strain 10: Strain 10, 37.5° C.; for Candida growth, Strain 11: Strain 11, 37.5° C.; for number of the 11 Candida strains that grew: of 11 strains
From the text: 1. […] Unless otherwise illustrated, the solutions in the experiments are all aqueous solutions. 2. Experimental Method: (1) Experimental Materials:
a) Experimental strains: 11 Candida strains, all of which were screened from the clinical isolates from patients suffering from Candidal vaginitis, and were capable of growing in broth comprising 0.025% (w/v) sodium benzoate.
b) Broth: 1% yeast extract powder, 9% sucrose, 0.025% Manganese sulfate (MnSO4.4H2O), 0.058% Magnesium sulphate (MgSO4.7H2O), and 0.9% lactic acid, wherein the pH value was adjusted to 4.5 and the broth was sterilized for use;
(2) Experimental Grouping:
The requirements for aseptic technique were strictly followed to prepare the following groups of sterile test tubes: • a) sodium benzoate group: a test tube containing 5 ml broth, to which 0.025% (w/v) sodium benzoate was added; • b) sodium benzoate+sodium dehydroacetate group: 6 test tubes each containing 5 ml broth, wherein 0.0025% (w/v), 0.005% (w/v), and 0.01% (w/v) sodium dehydroacetate were added to three tubes, respectively; 0.025% (w/v) sodium benzoate was added to each of the rest 3 tubes, and then 0.0025% (w/v), 0.005% (w/v), 0.01% (w/v) sodium dehydroacetate were added to them, respectively; • c) sodium benzoate+sodium propionate group: 6 test tubes each containing 5 ml broth, wherein 0.0625% (w/v), 0.125% (w/v), and 0.25% (w/v) sodium propionate were added to three tubes, respectively; 0.025% (w/v) sodium benzoate was added to each of the rest 3 tubes, and then 0.0625% (w/v), 0.125% (w/v), and 0.25% (w/v) sodium propionate were added to them, respectively; • d) sodium benzoate+potassium sorbate group: 6 test tubes each containing 5 ml broth, wherein 0.00625% (w/v), 0.0125% (w/v), and 0.025% (w/v) potassium sorbate were added to 3 tubes, respectively; 0.025% (w/v) sodium benzoate was added to each of the rest 3 tubes, and then 0.00625% (w/v), 0.0125% (w/v), and 0.025% (w/v) potassium sorbate were added to them, respectively; • e) sodium benzoate+Ethylparaben: 6 test tubes each containing 5 ml broth, wherein 0.0125% (w/v), 0.025% (w/v), and 0.05% (w/v) Ethylparaben were added to 3 tubes, respectively; 0.025% (w/v) sodium benzoate was added to each of the rest 3 tubes, and then 0.0125% (w/v), 0.025% (w/v), and 0.05% (w/v) Ethylparaben were added to them, respectively; • f) Positive control: a broth-containing test tube with Candida but without sodium benzoate, sodium dehydroacetate, sodium propionate, sorbic acid, or Ethylparaben. • g) Negative control: a broth-containing test tube without Candida, sodium benzoate, sodium dehydroacetate, sodium propionate, sorbic acid, or Ethylparaben; (3) Experimental Methods:
The Candidal suspensions were prepared under stringent aseptic manipulation techniques. The colonies of various Candidal strains were diluted with saline, respectively. The turbidity was adjusted with a turbiditor to 0.5M (about 10^8CFU/ml), and then 1 ml 0.5M bacterial solution was added to 9 ml broth and was 10 times diluted, so that each Candidal suspension comprised Candidal organisms at 10^7CFU/ml.
Under stringent aseptic manipulation techniques, 100 μl bacterial solution thus prepared was added to each of the aforesaid a˜f test tubes and the positive control tube, and no bacterial solution was added to the negative control tube g.
These tubes were incubated in a biochemical incubator at 37.5° C. for 72 hours. The turbidity of the test tubes were observed and recorded.

O=C([O-])c1ccccc1.[Na+] [0.025% sodium benzoate, sodium benzoate]
11/11: number of the 11 Candida strains that grew
+: Candida growth, Strain 1 | Candida growth, Strain 2 | Candida growth, Strain 3 | Candida growth, Strain 4 | Candida growth, Strain 5 | Candida growth, Strain 6 | Candida growth, Strain 7 | Candida growth, Strain 8 | Candida growth, Strain 9 | Candida growth, Strain 10 | Candida growth, Strain 11

CCOC(=O)c1ccc(O)cc1 [0.0125% Ethylparaben, Ethylparaben]
+: Candida growth, Strain 1 | Candida growth, Strain 2 | Candida growth, Strain 3 | Candida growth, Strain 4 | Candida growth, Strain 5 | Candida growth, Strain 6 | Candida growth, Strain 7 | Candida growth, Strain 8 | Candida growth, Strain 9 | Candida growth, Strain 10 | Candida growth, Strain 11
11: number of the 11 Candida strains that grew (listed as 0.0125% (w/v) Ethylparaben)

CCC(=O)[O-].[Na+] [0.25% sodium propionate, sodium propionate]
−: Candida growth, Strain 1 | Candida growth, Strain 2 | Candida growth, Strain 5 | Candida growth, Strain 6 | Candida growth, Strain 9 | Candida growth, Strain 11
5: number of the 11 Candida strains that grew (listed as 0.25% (w/v) sodium propionate)
+: Candida growth, Strain 3 | Candida growth, Strain 4 | Candida growth, Strain 7 | Candida growth, Strain 8 | Candida growth, Strain 10

CC(=O)c1c([O-])cc(C)oc1=O.[Na+] [0.005% sodium dehydroacetate, sodium dehydroacetate]
−: Candida growth, Strain 5 | Candida growth, Strain 9
+: Candida growth, Strain 1 | Candida growth, Strain 2 | Candida growth, Strain 3 | Candida growth, Strain 4 | Candida growth, Strain 6 | Candida growth, Strain 7 | Candida growth, Strain 8 | Candida growth, Strain 10 | Candida growth, Strain 11

CC(=O)c1c([O-])cc(C)oc1=O.[Na+] [0.0025% sodium dehydroacetate, sodium dehydroacetate]
+: Candida growth, Strain 1 | Candida growth, Strain 2 | Candida growth, Strain 3 | Candida growth, Strain 4 | Candida growth, Strain 6 | Candida growth, Strain 7 | Candida growth, Strain 8 | Candida growth, Strain 9 | Candida growth, Strain 10 | Candida growth, Strain 11
10: number of the 11 Candida strains that grew (listed as 0.0025% (w/v) sodium dehydroacetate)
−: Candida growth, Strain 5

C/C=C/C=C/C(=O)[O-].[K+] [0.0125% potassium sorbate, potassium sorbate]
−: Candida growth, Strain 2 | Candida growth, Strain 9
+: Candida growth, Strain 1 | Candida growth, Strain 3 | Candida growth, Strain 4 | Candida growth, Strain 5 | Candida growth, Strain 6 | Candida growth, Strain 7 | Candida growth, Strain 8 | Candida growth, Strain 10 | Candida growth, Strain 11

CCOC(=O)c1ccc(O)cc1 [0.05% Ethylparaben, Ethylparaben]
+: Candida growth, Strain 2 | Candida growth, Strain 3 | Candida growth, Strain 4 | Candida growth, Strain 6 | Candida growth, Strain 7 | Candida growth, Strain 8 | Candida growth, Strain 10 | Candida growth, Strain 11
−: Candida growth, Strain 1 | Candida growth, Strain 5 | Candida growth, Strain 9
8: number of the 11 Candida strains that grew (listed as 0.05% (w/v) Ethylparaben)

C/C=C/C=C/C(=O)[O-].[K+] [0.00625% potassium sorbate, potassium sorbate]
+: Candida growth, Strain 1 | Candida growth, Strain 2 | Candida growth, Strain 3 | Candida growth, Strain 4 | Candida growth, Strain 5 | Candida growth, Strain 6 | Candida growth, Strain 7 | Candida growth, Strain 8 | Candida growth, Strain 10 | Candida growth, Strain 11
10: number of the 11 Candida strains that grew (listed as 0.00625% (w/v) potassium sorbate)
−: Candida growth, Strain 9

CCC(=O)[O-].[Na+] [0.0625% sodium propionate, sodium propionate]
11: number of the 11 Candida strains that grew (listed as 0.0625% (w/v) sodium propionate)
+: Candida growth, Strain 1 | Candida growth, Strain 2 | Candida growth, Strain 3 | Candida growth, Strain 4 | Candida growth, Strain 5 | Candida growth, Strain 6 | Candida growth, Strain 7 | Candida growth, Strain 8 | Candida growth, Strain 9 | Candida growth, Strain 10 | Candida growth, Strain 11

CCOC(=O)c1ccc(O)cc1 [0.025% Ethylparaben, Ethylparaben]
+: Candida growth, Strain 1 | Candida growth, Strain 2 | Candida growth, Strain 3 | Candida growth, Strain 4 | Candida growth, Strain 5 | Candida growth, Strain 6 | Candida growth, Strain 7 | Candida growth, Strain 8 | Candida growth, Strain 9 | Candida growth, Strain 10 | Candida growth, Strain 11

CC(=O)c1c([O-])cc(C)oc1=O.[Na+] [0.01% sodium dehydroacetate, sodium dehydroacetate]
+: Candida growth, Strain 1 | Candida growth, Strain 3 | Candida growth, Strain 4 | Candida growth, Strain 6 | Candida growth, Strain 7 | Candida growth, Strain 8 | Candida growth, Strain 10
−: Candida growth, Strain 2 | Candida growth, Strain 5 | Candida growth, Strain 9 | Candida growth, Strain 11
7: number of the 11 Candida strains that grew (listed as 0.01% (w/v) sodium dehydroacetate)

C/C=C/C=C/C(=O)[O-].[K+] [0.025% potassium sorbate, potassium sorbate]
−: Candida growth, Strain 2 | Candida growth, Strain 9
+: Candida growth, Strain 1 | Candida growth, Strain 3 | Candida growth, Strain 4 | Candida growth, Strain 5 | Candida growth, Strain 6 | Candida growth, Strain 7 | Candida growth, Strain 8 | Candida growth, Strain 10 | Candida growth, Strain 11
9: number of the 11 Candida strains that grew (listed as 0.025% (w/v) potassium sorbate)
